Measured values from patent publication US20150133388A1, “ACETYLATED CRYSTALLIN POLYPEPTIDES AND MIMETICS THEREOF AS THERAPEUTIC AGENTS” (Case Western Reserve University, priority 2012, published 2015).
No end group written: not given here.

T1: citrate synthase (CS) (Sus scrofa, UniProt P00889)
T1 construct: purchased Sigma-Aldrich Chemical Co. (St. Louis, Mo.)
T1 sequence (P00889 28-464): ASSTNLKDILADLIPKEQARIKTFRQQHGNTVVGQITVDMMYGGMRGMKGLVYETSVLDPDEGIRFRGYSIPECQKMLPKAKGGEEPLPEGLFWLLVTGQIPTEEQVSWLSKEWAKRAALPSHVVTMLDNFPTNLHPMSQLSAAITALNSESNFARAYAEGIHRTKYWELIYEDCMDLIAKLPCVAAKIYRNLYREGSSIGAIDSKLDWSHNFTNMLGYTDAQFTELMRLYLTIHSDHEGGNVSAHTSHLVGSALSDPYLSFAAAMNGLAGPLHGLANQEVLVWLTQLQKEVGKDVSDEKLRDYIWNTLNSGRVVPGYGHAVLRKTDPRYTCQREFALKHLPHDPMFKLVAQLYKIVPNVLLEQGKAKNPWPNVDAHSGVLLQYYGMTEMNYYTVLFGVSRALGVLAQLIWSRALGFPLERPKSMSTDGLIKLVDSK


What was measured:
[1] = tested on: CHO cells; assay: Hyperthermia-induced apoptosis in CHO cells (Hoechst stain); assay type: cell-based, Chinese hamster; conditions: for inhibition of apoptosis: untreated rate ~28%
Description: (§1) Human lens epithelial cells (HLE) were isolated from the lens of a donor and cultured in DMEM supplemented with 10% FBS as previously described for mouse lens epithelial cells. Cells between passages 5 and 6 were used for the experiments. Chinese hamster ovary (CHO) cells were cultured in Ham's F12 medium. The α-crystallin peptides were mixed with a cationic lipid, BIOPORTER (BP), according to the manufacturer's instructions (Polyplus transfection reagent, Illkirch, France). When the cultures reached 70-80% confluence, the cells were treated with BP either alone or with the peptides in serumfree medium and incubated for 4 h at 37° C. in a humidified 5% CO2 atmosphere. The cells were then washed with PBS and incubated at 43° C. for 1 h (thermal stress), followed by incubation at 37° C. for 16 h for recovery. The percentage of apoptotic cells was determined by staining the cells with Hoechst. Cells incubated at 37° C. without thermal stress were used as controls.

[2] = tested on: Human lens epithelial cells (HLE); assay: Hyperthermia-induced apoptosis in HLE cells (Hoechst stain); assay type: cell-based; conditions: 43° C. 1 h; for rate of apoptosis after peptide pretreatment: 4 μg/ml in BP 4 h, without peptide nearly 40%
Description: as §1

[3] = tested on: caspase-3; assay: Caspase-3 activity in thermally stressed CHO cells; assay type: cell-based, Chinese hamster; conditions: 4 μg/ml
Description: (§2) Cells were lysed in cell lysis buffer (Cell signaling), and lenses were homogenized in 50 mM Tris-buffered saline. Both buffers contained a protease inhibitor cocktail (1:100 dilution). An equal volume of a fluorogenic substrate solution[2× reaction buffer: 10 mM DTT and 50 μM Ac-DEVD-AFC (for caspase-3) or Ac-LEHDAFC (for caspase-9)] was added to each lysate. The lysates were then incubated for 2 h at 37° C. in the dark. The samples were analyzed with a […] spectrofluorometer (HORIBA Scientific, Edison, N.J.) at excitation/emission wavelengths 400/505 nm.

[4] = tested on: caspase-9; assay: Caspase-9 activity in thermally stressed CHO cells; assay type: cell-based, Chinese hamster; conditions: 4 μg/ml
Description: as §2

[5] = tested on: selenite-induced cataracts; assay: Selenite-induced cataract in rat pups (slit lamp); assay type: in vivo
Description: (§3) Neonatal Sprague-Dawley rat pups (12 days old) were used for these experiments. The pups in the experimental groups received a single subcutaneous injection of sodium selenite (4 mg/Kg body weight) on day 12. Peptides diluted from a stock in sterile water (dissolved by adding 2 μl of 10 N NaOH to a 1.0 ml stock) were injected intraperitoneally (at 2.5, 5, or 10 μg/animal) 6 h prior to selenite injection (single injection). When multiple injections were performed, one pre-selenite injection was administered, as above, followed by four additional injections on four consecutive days after the sodium selenite injection. One group served as the control (no treatment) and another as the selenite control (no peptide injection). The lenses were examined on day 17 (when the pups had opened their eyes) using a slit lamp microscope (after dilating the pupil through topical application of tropicamide) and photographed. For hematoxylin and eosin (H & E) and TUNEL staining, eyes were fixed immediately after enucleation in a 10% buffered formalin solution overnight.

[6] = tested on: lens protein aggregation; assay: Histology (H&E) of lens protein aggregation in selenite cataract; assay type: in vivo, rat; conditions: multiple injections 10 μg
Description: as §3

[7] = tested on: lens epithelial cells; assay: Lens epithelial cell apoptosis in selenite cataract (in situ TUNEL); assay type: in vivo, rat; conditions: multiple 10 μg injections
Description: as §3

[8] = biological target: T1, citrate synthase (CS); assay: Chaperone assay, client protein citrate synthase; assay type: biochemical
Description: (§4) Chaperone assays were performed as previously described. The ratios of the peptides: client proteins (w/w) were as follows: citrate synthase, 1:2.5; insulin, 1:10; βL-crystallin, 1:1.5; and γ-crystallin, 1:1. The scrambled αA-crystallin peptide was tested in certain assays at peptide: client protein ratios as follows: citrate synthase, 1:1.25, insulin, 1:5 to determine peptide specificity.

[9] = tested on: insulin (IN); assay: Chaperone assay, client protein insulin; assay type: biochemical
Description: as §4

[10] = tested on: lens epithelial cells; assay: Calcimycin-induced apoptosis in organ-cultured mouse lenses (TUNEL); assay type: cell-based; conditions: 5 μM calcimycin
Description: The animal experiments conformed to the ARVO Statement for the Use of Animals in Ophthalmic and Vision Research and were approved by the CWRU's Animal Care and Use Committee. Lenses were dissected from the eyes of ˜3-month-old C57B1/6 mice and maintained in artificial aqueous humor (AAH) (113 mM NaCl, 4.5 mM KCl, 1 mM MgCl2, 1.5 mM CaCl2, 6 mM D-glucose, 10 mM HEPES, 20 mM NaHCO3, and 1:1,000 penicillin/streptomycin, pH 7.3). Lenses that developed opacification within 24 h were discarded. Native and acetyl αA- and αB crystallin peptides were added to the culture medium at a concentration of 50 μg/3.0 ml, followed by incubation of the lenses for 16 h. The medium was replaced with fresh medium containing 5 μM calcimycin, and the lenses were incubated for an additional 6 h. After this incubation period, the lenses were thoroughly washed with PBS, fixed in 1% buffered formalin overnight, and embedded in paraffin. Microtome sections (5 μm) were subsequently rehydrated and subjected to antigen retrieval via microwave irradiation in 10 mM citrate buffer (pH 6.0). Apoptosis was measured using the In situ Cell Death Detection Kit (Roche, Indianapolis, Ind.) according to the manufacturer's instructions. The sections were counterstained with DAPI to visualize nuclei.

[11] = tested on: βL-crystallin (BLC); assay: Chaperone assay, client protein βL-crystallin; assay type: biochemical; conditions: peptide:βL-crystallin 1:1.5 (w/w)
Description: as §4

[12] = tested on: γ-crystallin (GC); assay: Chaperone assay, client protein γ-crystallin; assay type: biochemical; conditions: peptide:γ-crystallin 1:1 (w/w)
Description: as §4

[13] = biological target: the above four client proteins (citrate synthase, insulin, βL-crystallin, γ-crystallin); assay: cell-based or functional assay
[14] = 1 μg/ml peptide in BIOPORTER 4 h, 43° C. 1 h
[15] = 2 μg/ml peptide in BIOPORTER 4 h, 43° C. 1 h
[16] = 4 μg/ml peptide in BIOPORTER 4 h, 43° C. 1 h
[17] = multiple i.p. injections 5 μg/animal
[18] = multiple i.p. injections 10 μg/animal
[19] = single i.p. injection 2.5 μg/animal 6 h prior to selenite
[20] = single i.p. injection 10 μg/animal 6 h prior to selenite

Molecule	inhibition of apoptosis [1, 14]	inhibition of apoptosis [1, 15]	inhibition of apoptosis [1, 16]	rate of apoptosis after peptide pretreatment [2]	inhibition of caspase-3 activity [3]	inhibition of caspase-9 activity [4]	inhibition of cataract development [5, 17]	inhibition of cataract development [5, 18]	inhibition of cataract development [5, 19]	inhibition of protein aggregation in the lens center (H&E) [6]	inhibition of lens epithelial cell apoptosis (TUNEL) [7]	inhibition of cataract development [5, 20]	also measured
69DKFVIFLDVKHFSPEDLTVK88 (listed as Homo sapiens) [αA-native peptide]	12%	14%	17%	22%	80%	51%	strongly inhibited cataracts	entirely inhibited cataracts	ineffective	inhibited	inhibited apoptosis	–	–
DFVIDSPFKLVDLEKVHFTK (listed as Homo sapiens) [αA-scrambled peptide]	–	–	–	–	–	–	–	entirely ineffective	–	–	–	–	chaperone function ([8]; peptide:CS 1:1.25, two times higher concentration than native and acetyl peptides): did not function as a chaperone; chaperone function ([9]; peptide:IN 1:5, two times higher concentration than native and acetyl peptides): did not function as a chaperone; inhibition of apoptosis (in words) ([1]; 4 μg/ml, 43° C. 1 h): did not inhibit apoptosis; inhibition of apoptosis (in words) ([2]; 4 μg/ml): did not inhibit apoptosis; protection from calcimycin-induced apoptosis (in words) [10]: did not protect the cells
69DK (acetyl) FVIFLDVKHFSPEDLTVK88 (DK(Ac)FVIFLDVKHFSPEDLTVK; listed as Homo sapiens) [αA-acetyl peptide]	–	–	–	25%	90%	53%	strongly inhibited cataracts	entirely inhibited cataracts	ineffective	inhibited	inhibited apoptosis	more effective than the native peptide	chaperone function compared with the native peptide ([8]; peptide:citrate synthase 1:2.5 (w/w)): significantly better; chaperone function compared with the native peptide ([9]; peptide:insulin 1:10 (w/w)): significantly better; chaperone function compared with the native peptide [11]: not different; chaperone function compared with the native peptide [12]: significantly better; more effective than the native peptide in inhibiting apoptosis ([1]; at the 2 and 4 μg concentrations): at least 5%; inhibition of cataract development ([5]; multiple i.p. injections 2.5 μg/animal): partially inhibited cataract development; inhibition of cataract development ([5]; single i.p. injection 5 μg/animal 6 h prior to selenite): more effective than the native peptide
73DRFSVNLDVKHFSPEELKVKV93 (listed as Homo sapiens) [αB-native peptide]	8%	12%	17%	18%	80%	51%	–	inhibited cataract development	ineffective	inhibited	inhibited apoptosis	strongly inhibited cataract development	–
DRFSVNLDVKHFSPEELKVK(Ac)V [αB-crystallin acetyl peptide 73…(acetyl)V93]	–	–	–	–	–	–	–	–	–	–	–	–	chaperone function, against the native αB peptide (percent weaker) [13]: 10 to 30%
